Measurements as given in patent publication US20100286188A1, “MEANS FOR IMPROVING COGNITIVE FUNCTIONS AND MEMORY BASED ON HYDROGENATED PYRIDO(4,3-B)INDOLES (VARIANTS), PHARMACOLOGICAL MEANS BASED THEREON AND METHOD FOR THE USE THEREOF” (priority 2006, published 2010).

Legend:
[1] = test system: healthy, mature C57BL/6 male mice; assay: Object location memory test (recognition of the new location of a known object); type: in vivo; settings: for dose with maximally expressed stimulating/activating effect on memory: mice, intragastric
Text: Method. In order to study the action of substances on the memory of animals in which there had been no prior destruction of neurons, we used the test of recognition of the new location of a known object (“Object location memory test”, B. Kolb, K. Buhrmann, R. McDonald and R. Sutherland, Cereb. Cortex, 6 (1994), pp 664-680; D. Gaffan, Eur. J. Neurosci., 4 (1992), pp. 381-388; T. Steckler, W. H. I. M. Drinkenburgh, A. Sahgal and J. P. Aggleton, Prog. Neurobiol., 54 (1998), pp. 289-311). This Object Recognition Test is used to study memory. It provides a reliable, easy-to-use assessment tool for analyzing the effects of test compounds on memory in animals. The test can be applied to normal healthy animals (controls), as well as to animals that are models of various neurodegenerative diseases.
Experiments were performed on healthy, mature C57BL/6 male mice aged 3-5 months and weighing 20-24 g. Male mice were used to exclude any possible negative effects resulting from hormonal changes associated with […] in female mice. The animals were kept in a vivarium with 5 to a cage in 12/12 hours light regime with light from 08.00 to 20.00 and free access to water and food. The observation chamber was made from white opaque organic glass and measured 48×38×30 cm. Brown glass vials with a diameter of 2.7 cm and a height of 5.5 cm were used as the test objects. 2-3 minutes before introducing an animal, the chamber and test objects were rubbed with 85% alcohol. The animals were always placed in the centre of the chamber.
Dimebon was dissolved in distilled water and administered intragastrically 1 hour before training in a volume of 0.05 ml per 10 g of animal weight. A corresponding volume of solvent was administered to control animals.
On the first day, the mice were brought into the test room and acclimatized for 20-30 minutes. After this, each animal was placed for 10 min. in an empty behavior chamber, which had been pretreated with alcohol, for familiarization. The animal was then replaced in the cage and taken to the vivarium.
On the following day, the same mice were brought into the test room, acclimatized for 20-30 min. and then given dimebon solution intragastrically. One hour after administration of the substance, an animal was placed in the behavior chamber, on the bottom of which two identical objects for recognition (glass vials) were placed on a diagonal at a distance of 14.5 cm from the corners. The training time for each animal was 20 min. After 20 min. it was replaced in the cage and returned to the vivarium.
Testing was performed 48 hours after training. For this purpose, after acclimatization an animal was placed for 1 min. in the chamber for refamiliarization. After a minute it was removed and one object was placed on the bottom of the chamber in a location known to the animal, and the other in a new location. The time spent investigating each object separately over a period of 10 min. was recorded with an accuracy of 0.1 s using two electronic stopwatches. The behavior of the animals was observed through a mirror. Purposeful approach of an animal's nose towards an object at a distance of 2 cm or direct touching of an object with the nose was regarded as a positive investigative reaction.
Since significant variations in object investigation time between animals are observed in this test, we calculated the percent investigation time for each mouse using the formula tNl/(tKl+tNl)×100. The total time spent on investigation of the two objects was taken as 100%. The results were further processed using the Student t-test method.

mice [2] = assay: Acute toxicity on intragastric administration; type: in vivo; settings: intragastric administration
Experimental: (§1) Investigation of the acute toxicity of Memantine® established that the death of the animals is observed after its intragastric administration in a dose of 300 mg/kg. The LD50 for mice on intragastric administration of Nootropil® (piracetam) is 8000 mg/kg.

mice [3] = settings: intragastric administration, source not stated; cited from earlier work
[4] = cited from earlier work
rats with a model of AD = settings: cholinergic neurons damaged by chronic AF64A; cited from earlier work
AD patients = settings: 20 mg three times daily; cited from earlier work
[5] = Acute toxicity on intragastric administration; type: in vivo; settings: mouse, in vivo, po
Experimental: as §1

[6] = dose 2.5 mg/kg, testing 48 hours after training
[7] = dose 0.01 mg/kg intragastrically 1 hour before training, testing 48 hours after training
[8] = dose 0.1 mg/kg intragastrically, testing 48 hours after training

Row | SMILES | percent of time on investigation of the object in a known location [1, 6] [%] | percent of time on investigation of the object in a new location [1, 6] [%] | dose with maximally expressed stimulating/activating effect on memory [1] [mg/kg] | dose at which death of the animals is observed (mice [2]) [mg/kg] | LD50 (mice [3]) [mg/kg] | doses with stimulating effect on learning and memory ([4]; active and passive avoidance conditioned response tests, depending on the test) [mg/kg] | maximally effective dose that stimulated learning and memory ([4]; data from the literature) [mg/kg] | results in active avoidance conditioned reflex experiment versus control animals (rats with a model of AD) | stimulating effect on memory, times more active than Nootropil (piracetam) ([1]; compared with literature doses of Nootropil) | memory-enhancing activity relative to Memantine (times higher) ([1]; comparing doses with essentially the same effect (0.01 vs 2.5 mg/kg)) [times] | memory-enhancing activity relative to Memantine (times higher) ([1]; comparing maximally effective doses (0.1 vs 2.5 mg/kg)) [times] | percent of time on investigation of the object in the known location [1, 7] [%] | percent of time on investigation of the object in the new location [1, 7] [%] | percent of time on investigation of the object in the known location [1, 8] [%] | percent of time on investigation of the object in the new location [1, 8] [%] | activating effect on memory ([1]; dose increased to 0.25 mg/kg) | stimulating effect on memory, times more active than Memantine ([1]; overall conclusion) | condition of AD patients (memory and cognitive functions) (AD patients) | LD50 [5] [mg/kg]
1 | CC12CC3CC(C)(C1)CC(N)(C3)C2 [Memantine®, reference compound] | 40.6±6.9 | 59.4±6.9 | 2.5 | 300 | – | – | – | – | – | – | – | – | – | – | – | – | – | – | –
2 | NC(=O)CN1CCCC1=O [Nootropil® (piracetam), piracetam] | – | – | – | – | 8000 | 200 to 500 | 200 to 500 | – | – | – | – | – | – | – | – | – | – | – | –
3 | Cc1ccc2c(c1)c1c(n2CCc2ccc(C)nc2)CCN(C)C1 [dimebon, 2,8-dimethyl-5-[2-(6-methyl-3-pyridyl)ethyl]-2,3,4,5-tetrahydro-1H-pyrido[4,3-b]indole] | – | – | 0.1 | – | – | – | – | significantly better results | 2000-5000 times | 250 | 25 | 42.5±4.8 | 57.5±4.8 | 37.6 | 62.4±6.5 | activating effect on memory disappears | 25-250 times | improvement in the condition of AD patients | > 1000
